“And” between values parts separate entries of the source, which are not always exact repeats. Equal entries are not always repeated. Inconclusive results are not listed.
Tested on: SK-MEL-5 MITF mRNA qPCR, delta-delta-Ct, overnight
Assay: MITF transcript level reduction in melanoma cells – cell-based, RT-qPCR, SK-MEL-5, dry powder, dose response (AID 651773)

| Compound | AC40 |
| --- | --- |
| NC1=C(NS(=O)(=O)c2cccs2)C(=O)c2ccccc2C1=O | 1550 nM |
| CCN1CCN(C2=C(NS(=O)(=O)c3ccc(Br)cc3)C(=O)c3ccccc3C2=O)CC1 | 3650 nM |
| COC1=C(NS(=O)(=O)c2cccs2)C(=O)c2ccccc2C1=O | 7800 nM |
| COC1=C(NS(=O)(=O)c2ccc(Br)cc2)C(=O)c2ccccc2C1=O | 6510 nM |
| NC1=C(NS(=O)(=O)c2ccccc2)C(=O)c2ccccc2C1=O | 2760 nM |
| COC1=C(Nc2ccccc2)C(=O)c2ccccc2C1=O | 386 nM |
| O=C1C(Nc2ccc(Cl)cc2)=C(N2CCCC2)C(=O)c2ccccc21 | 9480 nM |
| O=C1C(Nc2cccc(Cl)c2)=C(N2CCCC2)C(=O)c2ccccc21 | 10200 nM |
| O=C1C(Nc2ccc(Br)cc2)=C(N2CCCCC2)C(=O)c2ccccc21 | 9490 nM |
| O=C1C=C(Nc2ccccc2)C(=O)c2ccccc21 | 175 nM and 189 nM |
| O=C1C=C(NS(=O)(=O)c2ccccc2)C(=O)c2ccccc21 | 196 nM |
| CN1CCN(C2=C(Nc3ccc(F)cc3F)C(=O)c3ccccc3C2=O)CC1 | 1820 nM |
| O=C1C=C(NS(=O)(=O)c2cccs2)C(=O)c2ccccc21 | 542 nM |
| O=C1C(Nc2ccc(F)cc2)=C(N2CCCCC2)C(=O)c2ccccc21 | 6700 nM |
| O=C(NC1=C(Cl)C(=O)c2ccccc2C1=O)c1ccccc1 | 179 nM |
| O=C1C=C(NS(=O)(=O)c2ccc(Br)cc2)C(=O)c2ccccc21 | 631 nM |

| Compound | AC40 |
| --- | --- |
| NS(=O)(=O)c1ccc(NC2=CC(=O)c3ccccc3C2=O)cc1 | 115 nM |
| CC(C)N1CCN(C2=C(Nc3ccc(F)cc3)C(=O)c3ccccc3C2=O)CC1 | 5510 nM |
| C=CCNC1=C(Cl)C(=O)c2ccccc2C1=O | 276 nM |
| CN1CCN(C2=C(NS(=O)(=O)c3ccc(Br)s3)C(=O)c3ccccc3C2=O)CC1 | 1330 nM |
| NC1=CC(=O)c2ccccc2C1=O | 372 nM |
| COC1=C(NS(=O)(=O)c2ccccc2)C(=O)c2ccccc2C1=O | 1840 nM |
| O=C1C(Nc2ccccc2)=C(c2ccccc2)C(=O)c2ccccc21 | 5040 nM |
| NC1=C(NC(=O)c2ccccc2)C(=O)c2ccccc2C1=O | 357 nM |
| CCN1CCN(C2=C(Nc3ccc(F)cc3F)C(=O)c3ccccc3C2=O)CC1 | 2280 nM |
| Cc1ccc(NC2=CC(=O)c3ccccc3C2=O)cc1 | 1650 nM |
| CC(C)N1CCN(C2=C(Nc3ccc(F)cc3F)C(=O)c3ccccc3C2=O)CC1 | 1590 nM |
| O=C1C=C(Nc2ccc([N+](=O)[O-])c(C(F)(F)F)c2)C(=O)c2ccccc21 | 86.8 nM |
| NC1=C(NS(=O)(=O)c2ccc(Br)cc2)C(=O)c2ccccc2C1=O | 4920 nM |
| CCN1CCN(C2=C(NC(=O)c3ccccc3)C(=O)c3ccccc3C2=O)CC1 | 1280 nM |
| O=C1C(NS(=O)(=O)c2cccs2)=C(c2ccccc2)C(=O)c2ccccc21 | 4940 nM |

— PubChem BioAssay AID651773 (Broad Institute, 2012)
